Assay results published in article PMC6328429, “Synthesis of a benzoxazinthione derivative of tanaproget and pharmacological evaluation for PET imaging of PR expression” (EJNMMI Radiopharmacy and Chemistry, 2019).
“And” between values parts separate entries of the source, which are not always exact repeats. Equal entries are not always repeated. “Also recorded” adds a separate entry of the source. Where two headings read alike, the source gives them in different places.

Key:
[1] = Distribution coefficient analysis (LogD7.4), n-octanol/PBS; type: physicochemical
Procedure: Radioligand [^18F]2 (0.03 MBq, 1 μL, in EtOH) was mixed with PBS (500 μL) and n-octanol (500 μL). The sample was vortexed (10 min) followed by centrifugation (1×g, 10 min). Three aliquots (100 μL) from each layer were taken and counts measured using a 2480 WIZARD2 Automatic Gamma Counter (PerkinElmer, UK). Experiment was repeated in triplicate in n = 3 determinations (supporting information, Additional file 1: Table S1). Distribution coefficient (LogD7.4) was calculated as the logarithm of the ratio between CPM of the octanol and buffer phase.

T47D cells = assay: Cell uptake study of radioligand in breast cancer cell lines; type: cell-based, human
Procedure: T47D, MCF-7 and MDA-MB-231 cells (1 × 10^5) were plated into 6-well plates and used for receptor binding assays at 60–80% confluence. Cell medium was removed and cells were washed with cold PBS buffer. [^18F]2 (37 kBq/mL) was added to individual wells and cells were incubated at 37 °C in a humidified atmosphere of 5% CO2 for 60 min. Cells were co-incubated with 0.01–1 μM of cold progesterone for the blocking study. Cells were then washed 3 times with ice-cold PBS and lysed with RIPA buffer. Radioactivity was determined using a gamma spectrometer (Automatic Gamma counter, Wizard 3 Wallac). Radioactivity was normalised to protein content determined using a BCA 96-well plate assay (Thermo Fisher Scientific Inc., USA) and expressed as a percentage of total radioactivity per mg of protein.

[2] = Ex vivo biodistribution in C57BL/6 female mice; details: 50 min p.i.
Procedure: Pubertal female C57BL/6 mice were injected intraperitoneally with 30 IU gonadotropins, 15 IU Follicle-stimulating hormone (FSH) and 15 IU luteinizing hormone (LH) followed by 5 IU […] (hCG) after 48 h (Sigma-Aldrich, Gillingham, UK). After the imaging studies, the ovaries were removed and snap-frozen in liquid nitrogen for later analysis of protein expression by western blot.
[^18F]2 (455 ± 62 kBq) was injected into the tail vail of female C57BL/6 mice. Whilst under anaesthesia the animals were sacrificed and tissues of interest such as, heart, lung, liver, spleen, kidneys, stomach, muscle, bone, ovary, small intestines and large intestines were collected in pre-weighed counting tubes. Radioactivity within tissue samples was counted in a gamma spectrometer (Automatic Gamma Counter, Wizard 3 Wallac), and then weighed to determine the mass of the tissue. CPM for each tissue sample was normalised to the total injected dose of radioactivity to the animal to give %ID (injected dose), and then normalised to the weight of the counted tissue to give the radioactivity uptake of the tissue as %ID/g. Tabulated values shown in Additional file 1: Table S2.

[3] = Dynamic PET/CT imaging in C57BL/6 female mice; type: in vivo; details: PET images acquired over 50 min
Procedure: Mice were anaesthetised with 3–5% isoflurane at a flow rate of 1 L/min, and then reduced to 1.5–2% isoflurane for anaesthesia maintenance during imaging. [^18F]2 was injected via the tail vein at the commencement of a dynamic PET scan using a dedicated small animal PET/CT scanner (Sedecal SuperArgus2R, Sedecal, Spain). Images were acquired over a 50 min imaging sequence, followed by CT imaging acquired in 514 projections for anatomic coregistration. PET emission data were corrected for decay and dead time and reconstructed using 3D-OSEM. Data were analysed based on regions of interest (ROI) drawn within the tumours and tissue. Time-activity curves (TAC) were calculated as an average form the region of interest analysis of three mice (Additional file 1: Figure S34). Data was analysed using AMIDE software (Loening and Gambhir, [2003]) and VivoQuant (InVicro, MA, USA) and regions of interest (ROIs) were selected by hand, and the count densities were averaged for each frame to obtain a TAC for each ROI.

[4] = In vitro radioactive metabolite analysis in mouse liver microsomes; type: in vitro ADME; details: MLM, 60 min, radio-HPLC integration
Procedure: Radioligand [^18F]2 (3 MBq, ca. 80 μL), mouse liver microsomes (50 μL, 1 mg/mL), NADPH regeneration system A (50 μL), NADPH regeneration system B (10 μL), PBS 0.5 M pH 7.5 (200 μL) and water (ca. 200 μL) were added to a plastic 1.5 mL tube. The mixture was incubated at 37 °C for 60 min and transferred into a plastic centrifuge tube (10 mL). Proteins were precipitated with ice-cold MeOH (2 mL) and the mixture was centrifuged (12,000 g, 3 min) to pellet the precipitate. The supernatant was removed, evaporated to dryness and the residue was suspended in 37% MeCN + 0.1%TFA / 63% Water + 0.1%TFA for RP-HPLC using gradient 3 (supporting information, section 10.3). The experiment was performed in n = 3 determinations. Extraction efficiency of radioactivity from the protein pellet was calculated to be 93.5% ± 1.6 (Additional file 1: Table S3). HPLC data is shown in the supporting information (Additional file 1: Figure S35).

[5] = Stability of formulated radioligand; type: physicochemical; details: up to 4 h after formulation; 10% (v/v) EtOH/PBS
[6] = PR-induced (PR+, gonadotropin stimulated) mice, mean ± SEM

## CC1(C)OC(=S)Nc2ccc(-c3cccnc3[18F])cc21 [[^18F]2]
[1]; pH 7.4, PBS (pH 7.4) / octan-1-ol, three repeats in triplicate, read-out: Distribution coefficient (LogD7.4), mean ± SD
  logD: 1.69 ± 0.1
[1]; pH 7.4, single measurements (Run 1-3, a-c), read-out: LogD7.5
  logD: 1.67
T47D cells; T47D (PR++) compared to MCF7 (PR+) and MDA-MB-231 (PR-), 60 min, 37 °C
  Uptake of radioligand in cell lines: significant accumulation in T47D cells
T47D cells; T47D cells, progesterone 0.01–0.1 μM
  Uptake in T47D cells on co-incubation with progesterone (blocking): decreased in a dose-dependent manner
[2]
  Bone uptake ratio, gonadotropin-stimulated vs control mice: 2 fold
[2]; [6]
  Biodistribution, blood: 1.30 ± 0.30 %ID/g
  Biodistribution, bone: 31.21 ± 5.99 %ID/g
  Biodistribution, brain: 0.40 ± 0.09 %ID/g
  Biodistribution, heart: 1.47 ± 0.31 %ID/g
  Biodistribution, kidney: 3.89 ± 1.26 %ID/g
  Biodistribution, large intestine: 13.25 ± 1.70 %ID/g
  Biodistribution, liver: 14.48 ± 4.91 %ID/g
  Biodistribution, lungs: 1.33 ± 0.28 %ID/g
  Biodistribution, muscle: 1.55 ± 0.44 %ID/g
  Biodistribution, small intestine: 36.08 ± 1.21 %ID/g
  Biodistribution, spleen: 0.15 ± 0.06 %ID/g
  Biodistribution, stomach: 3.41 ± 0.26 %ID/g
  Biodistribution, urine: 12.93 ± 12.56 %ID/g
[2]; control (PR-) mice, mean ± SEM
  Biodistribution, blood: 0.01 ± 0.000 %ID/g
  Biodistribution, bone: 15.37 ± 3.47 %ID/g
  Biodistribution, brain: 0.41 ± 0.09 %ID/g
  Biodistribution, heart: 1.40 ± 0.33 %ID/g
  Biodistribution, kidney: 4.02 ± 1.18 %ID/g
  Biodistribution, large intestine: 1.30 ± 0.07 %ID/g
  Biodistribution, liver: 6.19 ± 1.74 %ID/g
  Biodistribution, lungs: 1.28 ± 0.35 %ID/g
  Biodistribution, muscle: 0.91 ± 0.19 %ID/g
  Biodistribution, ovary: 1.32 ± 0.22 %ID/g
  Biodistribution, small intestine: 30.49 ± 3.05 %ID/g
  Biodistribution, spleen: 0.99 ± 0.28 %ID/g
  Biodistribution, stomach: 0.73 ± 0.17 %ID/g
  Biodistribution, urine: 10.94 ± 8.40 %ID/g
[3]
  Distribution of radioactivity in PET images: Extensive skeletal uptake; also recorded: accumulation of radioactivity in the liver and small intestines, but also in the spine, joints and skull
[4]; individual runs / representative chromatogram
  [^18F]2 parent (Rt = ca 12:21 min:sec), single run: 33.3% and 36.3% and 36.6%
[4]; n = 3
  [^18F]2 parent (Rt = ca 12:21 min:sec), mean ± SD: 35.4 ± 1.8%
[5]
  Stability after formulation: 99.7%
